Tests used:
CF-1 strain mice [1] = test: Topical analgesic activity: tail formalin test; type: in vivo; conditions: topical 5% solution; from medians of treated and control group
Experimental: The in vivo biological study evaluated the toxicity, oral analgesic activity and topical analgesic activity in the global methanolic extract of Encelia canescens Lam. For these assessments not inbred males CF-1 strain mice were used, whose weight varied between 14 to 20 g and age between 30 to 35 days. In all evaluations, animals were kept in fasting for 12 hours prior to each test with water ad libitum at room temperature.
Each test was carried out with 10 animals, leaving 2 of them as controls, adding these to a “pool” of animal controls, in total were a group of 16 control animals. At the end of the tests, the animals were sacrificed by cervical dislocation, a painless method.
For all tests, the pharmacological effect was calculated using the values of the median, as a measure of central tendency of the data and standard error of the median (SEM) as measure of dispersion.
Results were analyzed by the non-parametric statistical method of Wilcoxon for independent data (Hollander and Wolfe, 1973), considering significant if its p≦0.05.
This test is intended to determine the analgesic activity via topical of global methanol extract (EMG) of Encella canescens Lam. […] Then, the time of licking which makes the mouse at the site of injection for five minutes, was counted. […] The topical analgesic activity was calculated using the following formula. % D=(Cm/Cc)×100 where: % D: percentage of pain. […]

CF-1 strain mice [2] = test: Oral analgesia: abdominal twisting induced by acetic acid; type: in vivo; conditions: extract 200 mg/kg in arabic gum, dose of reference drug not given
[3] = Antioxidant evaluation in system lacase-ABTS; type: biochemical
Experimental: In addition, the antioxidant capacity was analyzed using the system lacase-ABTS (2,2-azino-bis-3-ethyl-benzo-thiazolin-6-sulfonic) that allows to establish in a comparative way the oxidation of substrates, denoting of indirect way the antioxidant capacity of a sample (Table 7).

## CC(C)Cc1ccc(C(C)C(=O)O)cc1 (stereo not drawn) [Ibuprofen]
CF-1 strain mice [1]
  % AAT percentage of the topical analgesic activity (% A 1): 76.53%

## COc1ccc2cc([C@H](C)C(=O)O)ccc2c1 [Naproxen Sodium, Naproxen sodium]
CF-1 strain mice [2]
  % E percentage of analgesic effect (with median, final): 70%

## Cc1c(C)c2c(c(C)c1O)CCC(C)(C(=O)O)O2 (stereo not drawn) [Trolox ®, Trolox]
[3]
  Antioxidant activity IC50: 1970 µg/mL
